Assay [1] addresses human CB2 receptors (Homo sapiens (Human), UniProt P34972). The assay is described as follows: human CB2 radioligand binding assay ([3H]CP 55,940 competition). The procedure:
(§1) The CB1 and CB2 radioligand binding assays described herein are utilized to ascertain the affinity of compounds of the present application for binding to CB2 relative to CB1 receptors.
HEK293 cells stably expressing human CB2 receptors were grown until a confluent monolayer was formed. Briefly, the cells were harvested and homogenized in TE buffer (50 mM Tris-HCl, 1 mM MgCl2, and 1 mM EDTA) using a polytron for 2×10 second bursts in the presence of protease inhibitors, followed by centrifugation at 45,000×g for 20 minutes. The final membrane pellet was re-homogenized in storage buffer (50 mM Tris-HCl, 1 mM MgCl2, and 1 mM EDTA and 10% sucrose) and frozen at −78° C. until used. Saturation binding reactions were initiated by the addition of membrane preparation (protein concentration of 5 μg/well for human CB2) into wells of a deep well plate containing [^3H]CP 55,940 (120 Ci/mmol, a nonselective CB agonist commercially available from Tocris) in assay buffer (50 mM Tris, 2.5 mM EDTA, 5 mM MgCl2, and 0.5 mg/mL fatty acid free BSA, pH 7.4). After 90 min incubation at 30° C., binding reaction was terminated by the addition of 300 μL/well of cold assay buffer followed by rapid vacuum filtration through a UniFilter-96 GF/C filter plates (pre-soaked in 1 mg/mL BSA for 2 hours). The bound activity was counted in a TopCount using Microscint-20. Saturation experiments were conducted with twelve concentrations of [^3H]CP 55,940 ranging from 0.01 to 8 nM. Competition experiments were conducted with 0.5 nM [^3H]CP 55,940 and five concentrations (0.01 nM to 10 μM) of displacing ligands. The addition of 10 μM unlabeled CP 55,940 (Tocris, Ellisville, Mo.) was used to assess nonspecific binding.

The target of assay [2] is rat CB2 receptors (Rattus norvegicus (Rat), UniProt Q9QZN9). The assay is described as follows: rat CB2 radioligand binding assay ([3H]CP 55,940 competition). The note with it: HEK293 membranes, 0.5 nM [3H]CP 55,940. The procedure: as §1
HEK293 cells stably expressing rat CB2 receptors were grown until a confluent monolayer was formed. Briefly, the cells were harvested and homogenized in TE buffer (50 mM Tris-HCl, 1 mM MgCl2, and 1 mM EDTA) using a polytron for 2×10 second bursts in the presence of protease inhibitors, followed by centrifugation at 45,000×g for 20 minutes. The final membrane pellet was re-homogenized in storage buffer (50 mM Tris-HCl, 1 mM MgCl2, and 1 mM EDTA and 10% sucrose) and frozen at −78° C. until used. Saturation binding reactions were initiated by the addition of membrane preparation (protein concentration of 20 μg/well for rat CB2) into wells of a deep well plate containing [^3H]CP 55,940 (120 Ci/mmol, a nonselective CB agonist commercially available from Tocris) in assay buffer (50 mM Tris, 2.5 mM EDTA, 5 mM MgCl2, and 0.5 mg/mL fatty acid free BSA, pH 7.4). After 45 min incubation at 30° C., binding reaction was terminated by the addition of 300 μl/well of cold assay buffer followed by rapid vacuum filtration through a UniFilter-96 GF/C filter plates (pre-soaked in 1 mg/mL BSA for 2 hours). The bound activity was counted in a TopCount using Microscint-20. Saturation experiments were conducted with twelve concentrations of [^3H]CP 55,940 ranging from 0.01 to 8 nM. Competition experiments were conducted with 0.5 nM [^3H]CP 55,940 and five concentrations of displacing ligands selected from the range of 0.01 nM to 10 μM. The addition of 10 μM unlabeled CP 55,940 (Tocris, Ellisville, Mo.) was used to assess nonspecific binding.

Assay [3] has as its target rat CB2 receptors (HEK cells) (Rattus norvegicus (Rat), UniProt Q9QZN9). Put plainly: rat CB2 cyclase functional assay (HitHunter cAMP). It is filed as cell-based. As for the experimental part: (§2) The cyclase functional assays were performed using the HitHunter™ cAMP assay kit from DiscoveRx (Fremont, Calif.) according to vendor's protocol. Briefly, HEK cells expressing CB2 or CB1 receptors (rat or human) were detached using cell dissociation buffer (Invitrogen, Carlsbad, Calif.), dispersed and placed in suspension at 10,000 cells per well in 96 well plates prior to the assay. Cell suspensions were incubated at 37° C. for 20 min with variable concentrations of test ligands and or 10 μM CP 55,940-positive control in the presence of a fixed concentration of forskolin (18 μM for rat CB2 and 37 μM for rat CB1) in Dulbescco's phosphate-buffered saline (Invitrogen, Carlsbad, Calif.) supplemented with bovine serum albumin (0.01% final concentration). The reactions were terminated by the addition of lysis buffer and the luminescence was detected following the procedure according to the manufacturer's instructions. EC50 values were calculated using sigmoidal dose-response curve fitting from Prism (GraphPad).

Assay [4] has as its target rat CB1 receptors (HEK cells) (Rattus norvegicus (Rat), UniProt P20272). Put plainly: rat CB1 cyclase functional assay (HitHunter cAMP). In kind it is cell-based. The procedure: as §2
[5] abbreviates: HEK293 membranes, 0.5 nM [3H]CP 55,940, read-out: human CB2 (Ki).
[6] abbreviates: HEK cells, forskolin 18 μM, read-out: rat CB2 cyclase (EC50).

Where two headings read alike, the source gives them in different places. Some results are limits rather than exact numbers.

rat CB1 receptors (HEK cells), sequence (P20272 whole entry): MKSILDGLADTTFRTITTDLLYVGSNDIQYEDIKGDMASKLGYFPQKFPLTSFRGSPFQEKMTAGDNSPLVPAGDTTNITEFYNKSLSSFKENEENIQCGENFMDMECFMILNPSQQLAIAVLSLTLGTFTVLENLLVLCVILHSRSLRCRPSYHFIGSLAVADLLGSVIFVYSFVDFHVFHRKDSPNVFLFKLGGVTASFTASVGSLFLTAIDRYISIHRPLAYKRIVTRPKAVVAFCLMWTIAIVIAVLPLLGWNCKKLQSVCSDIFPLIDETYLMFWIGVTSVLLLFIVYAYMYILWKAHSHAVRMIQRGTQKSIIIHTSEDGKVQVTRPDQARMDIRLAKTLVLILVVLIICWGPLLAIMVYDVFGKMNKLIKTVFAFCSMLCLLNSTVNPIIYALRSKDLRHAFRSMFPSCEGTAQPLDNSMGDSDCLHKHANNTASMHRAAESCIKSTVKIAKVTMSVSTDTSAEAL
human CB2 receptors, sequence (P34972 whole entry): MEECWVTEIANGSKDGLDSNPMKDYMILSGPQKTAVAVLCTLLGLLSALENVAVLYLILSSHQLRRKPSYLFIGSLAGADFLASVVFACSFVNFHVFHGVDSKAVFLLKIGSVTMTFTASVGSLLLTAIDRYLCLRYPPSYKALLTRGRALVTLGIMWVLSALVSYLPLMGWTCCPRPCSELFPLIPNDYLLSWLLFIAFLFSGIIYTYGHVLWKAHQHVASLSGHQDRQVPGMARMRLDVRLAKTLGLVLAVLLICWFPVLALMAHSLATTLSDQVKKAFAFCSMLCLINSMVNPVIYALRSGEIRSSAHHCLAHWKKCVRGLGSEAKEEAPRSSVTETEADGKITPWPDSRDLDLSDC

Consider `CN1CCC[C@H]1COc1ccc(C(F)(F)F)cc1C(=O)/N=c1\sc(C(C)(C)C)cn1C[C@H]1CCCO1` [Example 24, N-[(2Z)-5-tert-butyl-3-[(2R)-tetrahydrofuran-2-ylmethyl]-1,3-thiazol-2(3H)-ylidene]-2-{[(2S)-1-methylpyrrolidin-2-yl]methoxy}-5-(trifluoromethyl)benzamide], for which the Ki in assay [1] (setting [5]) is 4.6 nM; in assay [2] it was 3.4 nM. Further, the results for the EC50 in assay [3] (setting [6]) and in assay [4] were 0.09 nM and 1990 nM, respectively.
In the case of `CN1CCC[C@H]1COc1ccc(C(F)(F)F)cc1C(=S)/N=c1\sc(C(C)(C)C)cn1C[C@H]1CCCO1` [Example 51, N-[(2Z)-5-tert-butyl-3-[(2R)-tetrahydrofuran-2-ylmethyl]-1,3-thiazol-2(3H)-ylidene]-2-{[(2S)-1-methylpyrrolidin-2-yl]methoxy}-5-(trifluoromethyl)benzenecarbothioamide], the results for the Ki in assay [1] (setting [5]) and in assay [2] were 1.3 nM and 0.9 nM, respectively. Besides, the EC50 in assay [3] (setting [6]) stood at 0.34 nM; in assay [4], 1320 nM.
For the molecule `CCN1CCC[C@H]1COc1ccc(C(F)(F)F)cc1C(=O)/N=c1\sc(C(C)(C)C)cn1C[C@H]1CCCO1` [Example 45, N-[(2Z)-5-tert-butyl-3-[(2R)-tetrahydrofuran-2-ylmethyl]-1,3-thiazol-2(3H)-ylidene]-2-{[(2S)-1-ethylpyrrolidin-2-yl]methoxy}-5-(trifluoromethyl)benzamide], the inhibition constant Ki was determined as 8.2 nM in assay [1] (setting [5]) and 8.6 nM in assay [2]. Further, the 50% effective concentration (EC50) was 0.83 nM in assay [3] (setting [6]) and 5010 nM in assay [4].
Regarding `CN1CCCC[C@@H]1COc1ccc(C(F)(F)F)cc1C(=O)/N=c1\sc(C(C)(C)C)cn1C[C@H]1CCCO1` [Example 7, N-[(2Z)-5-tert-butyl-3-[(2R)-tetrahydrofuran-2-ylmethyl]-1,3-thiazol-2(3H)-ylidene]-2-{[(2R)-1-methylpiperidin-2-yl]methoxy}-5-(trifluoromethyl)benzamide], the Ki in assay [1] (setting [5]) is 33 nM; in assay [2] it was 19 nM. Further, the concentration giving a half-maximal response (EC50) was determined as 0.38 nM in assay [3] (setting [6]) and 4700 nM in assay [4].
In the same order, the values of `CC(C)(C)c1cn(C[C@H]2CCCO2)/c(=N/C(=O)c2cc(C(F)(F)F)ccc2OCc2cccc[n+]2[O-])s1` [Example 20, N-[(2Z)-5-tert-butyl-3-[(2R)-tetrahydrofuran-2-ylmethyl]-1,3-thiazol-2(3H)-ylidene]-2-[(1-oxidopyridin-2-yl)methoxy]-5-(trifluoromethyl)benzamide] are 209 nM, 51 nM, 0.47 nM and 7980 nM.
Regarding `CC(C)(C)c1cn(C[C@H]2CCCO2)/c(=N/C(=O)c2cc(C(F)(F)F)ccc2OC[C@H](N)CO)s1` [Example 69, 2-{[(2R)-2-amino-3-hydroxypropyl]oxy}-N-[(2Z)-5-tert-butyl-3-[(2R)-tetrahydrofuran-2-ylmethyl]-1,3-thiazol-2(3H)-ylidene]-5-(trifluoromethyl)benzamide], the Ki in assay [1] turned out to be 3.6 nM; in assay [2] it was 0.9 nM. For the same molecule, the half-maximal effective concentration (EC50) came out at 0.14 nM in assay [3] (setting [6]) and 1610 nM in assay [4].
For `CN1CCCC[C@H]1COc1ccc(C(F)(F)F)cc1C(=O)/N=c1\sc(C(C)(C)C)cn1C[C@H]1CCCO1` [Example 5], the Ki in assay [1] (setting [5]) turned out to be 0.7 nM; in assay [2] it was 1.4 nM. The half-maximal effective concentration (EC50) worked out at 0.15 nM in assay [3] (setting [6]) and 612 nM in assay [4] (HEK cells, forskolin 37 μM, read-out: rCB1 cyclase (EC50)).
For `CC(C)(C)c1cn(C[C@H]2CCCO2)/c(=N/C(=O)c2cc(C(F)(F)F)ccc2OCc2ccn[nH]2)s1` [Example 56, N-[(2Z)-5-tert-butyl-3-[(2R)-tetrahydrofuran-2-ylmethyl]-1,3-thiazol-2(3H)-ylidene]-2-(1H-pyrazol-5-ylmethoxy)-5-(trifluoromethyl)benzamide], the Ki amounted to 11 nM in assay [1] (setting [5]) and 5.1 nM in assay [2]. Moreover, the concentration for a half-maximal effect (EC50) in assay [3] (setting [6]) amounted to 0.76 nM; in assay [4], 3050 nM.
`CC(COc1ccc(C(F)(F)F)cc1C(=O)/N=c1\sc(C(C)(C)C)cn1C[C@H]1CCCO1)=NOC1CCCCO1` (stereo partly drawn) [Example 63, N-[(2Z)-5-tert-butyl-3-[(2R)-tetrahydrofuran-2-ylmethyl]-1,3-thiazol-2(3H)-ylidene]-2-({2-[(tetrahydro-2H-pyran-2-yloxy)imino]propyl}oxy)-5-(trifluoromethyl)benzamide]: the inhibition constant (Ki) is 25 nM in assay [1] and 6.6 nM in assay [2]. Moreover, the 50% effective concentration (EC50) in assay [3] (setting [6]) was 2.15 nM; in assay [4], greater than 27000 nM.
As to `CC(C)(C)c1cn(C[C@H]2CCCO2)/c(=N/C(=O)c2cc(C(F)(F)F)ccc2OC[C@@H]2CCCN2S(C)(=O)=O)s1` [Example 48, N-[(2Z)-5-tert-butyl-3-[(2R)-tetrahydrofuran-2-ylmethyl]-1,3-thiazol-2(3H)-ylidene]-2-{[(2S)-1-(methylsulfonyl)pyrrolidin-2-yl]methoxy}-5-(trifluoromethyl)benzamide], the inhibitory constant (Ki) in assay [1] (setting [5]) is 16 nM; in assay [2], 3 nM. For the same molecule, the results for the EC50 in assay [3] (setting [6]) and in assay [4] were 0.39 nM and 8650 nM, respectively.
Take `CC(C)(C)c1cn(C[C@H]2CCCO2)/c(=N/C(=O)c2cc(C(F)(F)F)ccc2OC[C@@H]2CCCN2)s1` [Example 44, N-[(2Z)-5-tert-butyl-3-[(2R)-tetrahydrofuran-2-ylmethyl]-1,3-thiazol-2(3H)-ylidene]-2-[(2S)-pyrrolidin-2-ylmethoxy]-5-(trifluoromethyl)benzamide]: the results for the inhibition constant Ki in assay [1] (setting [5]) and in assay [2] were 4.6 nM and 2 nM, respectively. Besides, the concentration giving a half-maximal response (EC50) was 0.39 nM in assay [3] and 4730 nM in assay [4].
Take `CC(C)N1CCC[C@H]1COc1ccc(C(F)(F)F)cc1C(=O)/N=c1\sc(C(C)(C)C)cn1C[C@H]1CCCO1` [Example 46, N-[(2Z)-5-tert-butyl-3-[(2R)-tetrahydrofuran-2-ylmethyl]-1,3-thiazol-2(3H)-ylidene]-2-{[(2S)-1-isopropylpyrrolidin-2-yl]methoxy}-5-(trifluoromethyl)benzamide]: the Ki in assay [1] (setting [5]) amounted to 102 nM; in assay [2], 21 nM. Moreover, the figures for the EC50 in assay [3] (setting [6]) and in assay [4] were 7.32 nM and 5420 nM, respectively.
The matching figures for `CC(C)(C)c1cn(C[C@@H]2CCCO2)/c(=N/C(=O)c2cc(C(F)(F)F)ccc2OC[C@H](N)CO)s1` [Example 33, 2-{[(2R)-2-amino-3-hydroxypropyl]oxy}-N-[(2Z)-5-tert-butyl-3-[(2S)-tetrahydrofuran-2-ylmethyl]-1,3-thiazol-2(3H)-ylidene]-5-(trifluoromethyl)benzamide]: 7.4 nM, 2.8 nM, 0.18 nM and 1170 nM.

By Ki is commonly meant the equilibrium dissociation constant of an inhibitor or competing ligand from its target. The term EC50 denotes the concentration needed to bring the measured effect to its halfway point.

The values above are taken from patent publication US8846730B2, “Compounds as cannabinoid receptor ligands” (priority 2008, dated 2014).
